Like-named read-outs stand apart in the source and are kept apart here.

Data set [1] concerns Debaryomyces hansenii. The data set is described as follows: Yeast growth in yogurt with EDTA or scavenger (Example 9). The settings on record: added to reference yogurt; FIG. 14. The data set is classed as cell-based. Here is the method:
The concentration of EDTA ranges from 14 mg/ml (top row), 7.10 mg/ml, 3.55 mg/ml, 1.78 mg/ml, 0.89 mg/ml, 0.44 mg/ml, 0.22 mg/ml to 0 mg/ml (bottom row).

The next data set has as its system Debaromyces hansenii. The protocol:
Absorbance at 600 nm was measured after 7 days of incubation at 17° C., compared to reference. Samples made in triplicate.
Two concentrations of manganese were used, 6 ppm and 0.6 ppm, in example 8.

For data set [2], the system named is Debaryomyces hansenii. Particulars: chemically defined medium, pH 6.5 or 4.5; 6 days at 17° C.; FIGS. 1 and 2.
Method: Two D. hansenii isolated from spoiled yogurt (strain 1) and quark (strain 2), respectively, were used.
The minimal medium contains biotin 2 μg/L, calcium pantothenate 400 μg/L, folic acid 2 μg/L, inositol 2 mg/L, nicotinic acid 400 μg/L, p-amino benzoic acid 200 μg/L, pyridoxine 400 μg/L, riboflavin 200 μg/L, thiamine 400 μg/L, Boric acid 500 μg/L, copper sulfate 40 μg/L, potassium iodide 100 μg/L, ferric chloride 200 μg/L, sodium molybdate 200 μg/L, zinc sulfate 400 μg/L, potassium phosphate monobasic 0.5 g/L, potassium phosphate dibasic 0.5 g/L, magnesium sulfate 0.5 g/L, sodium chloride 0.1 g/L, calcium chloride 0.2 g/L, glucose 20 g/L, ammonium sulfate 5 g/L.
Two different pH were tested: pH 6.5 and 4.5.
The strains were inoculated to 150 μl of the different medium in a 96 well plate. The plates were incubated at 17° C. for several days and the growth of the yeast strains was followed by measuring absorbance at 600 nm in a plate reader.
A further data set deals with Cryptococcus fragicola. Kind of data set: Yeast agar-assay on fermented milk plates (Example 6). The data set is classed as cell-based. Particulars: added manganese on fermented milk agar plates. The protocol:
Influence of manganese on the inhibitory effect against different molds were evaluated. An agar-assay resembling the manufacturing process and production of fermented milk products was used. L. rhamnosus and L. paracasei were used together as manganese scavenging agents. Reduced-fat (1.5% w/v) homogenized milk was heat-treated at 90±1° C. for 20 min and cooled immediately. A commercial starter culture (Streptococcus thermophilus and Lactobacillus delbrueckii subsp. bulgaricus) was inoculated at 0.02% (v/w) in 3 L buckets. […] The fermented milk products were divided into 200 mL bottles and cooled down. […] All the fermented milk samples were warmed to a temperature of 40° C. and added 40 ml of a 5% sterile agar solution that had been melted and cooled down to 60° C. This solution of fermented milk and agar was then poured into sterile Petri dishes and the plates were dried in a LAF bench for 30 min. Three target contaminants, including two Debaryomyces hansenii (strain 1 and strain 2) and one Cryptococcus fragicola were spotted in concentrations of 10^3, 10^2 and 10^1 CFU/spot. Plates were incubated at 7±1° C. and regularly examined for the growth of yeast.

As to `O=C(O)CN(CCN(CC(=O)O)CC(=O)O)CC(=O)O` [EDTA, ethylenediaminetetraacetic acid], the “concentration reproducing the inhibition of manganese scavenging agent 1” value with Debaryomyces hansenii [1] is “up to 0.89 mg/ml”. The “concentration at which cells stop growing (inhibitory effect)” value with Debaromyces hansenii (FIG. 12, aqueous phase filtered with 1.2 μm filter, 7 days at 17° C.) worked out at 0.05 mg/mL; in the data set on Debaromyces hansenii (FIG. 13, aqueous phase filtered with 0.2 μm filter, absence of manganese (0.6 ppm)), 0.05 mg/mL. The “effect on growth of adding 0.6 ppm of manganese together with 0.05 mg/ml EDTA” value in the data set on Debaromyces hansenii (FIG. 13, 0.05 mg/ml EDTA + 0.6 ppm manganese) was “restores the growth”.
`[Mn+2]` [manganese]: the “manganese concentration below which growth is inhibited” value in the data set with Debaryomyces hansenii [2] was < 0.01 ppm. Besides, the “manganese concentration with inhibitory/toxic effect on yeast growth” value with Debaromyces hansenii (Example 8) was determined as 6 ppm. Besides, in the data set on Cryptococcus fragicola, the “Manganese concentration that seemed to inhibit the growth” value is given as 6 ppm.

For the origin of these results see US11707070B2, “Inhibition of fungal growth by manganese depletion” (Chr. Hansen A/S, priority 2018, dated 2023).
